# Numbers after ± are expanded uncertainties.
# What was measured:
# [1] = 298.15 K; 101 kPa; Liquid
# [2] = xn = mol fraction of the nth substance listed; settings: 298.15 K, 101 kPa, Liquid
structure (smiles),measurement,setting,value
CCC(C)=O [butanone],mass density,[1],798.1 ± 0.6 kg/m3
same,viscosity,[1],0.373 ± 0.007 mPa·s
CCCC(=O)O [butanoic acid],mass density,[1],952.8 ± 0.8 kg/m3
same,viscosity,[1],1.396 ± 0.023 mPa·s
"C1COCO1 [1,3-dioxolane]",mass density,[1],1057.1 ± 0.9 kg/m3
same,viscosity,[1],0.531 ± 0.01 mPa·s
CCCCOC(C)=O [butyl ethanoate],mass density,[1],874.4 ± 0.7 kg/m3
same,viscosity,[1],0.668 ± 0.012 mPa·s
"C1COCCO1 [1,4-dioxane]",mass density,[1],1026.5 ± 0.8 kg/m3
same,viscosity,[1],1.196 ± 0.02 mPa·s
CCCCN [1-butanamine],mass density,[1],731.9 ± 0.6 kg/m3
same,viscosity,[1],0.493 ± 0.009 mPa·s
"C1COCO1 [1,3-dioxolane] + CCC(C)=O",mass density,[2]; x1 = 0.0976,818.9 ± 0.6 kg/m3
same,viscosity,[2]; x1 = 0.0976,0.384 ± 0.008 mPa·s
same,mass density,[2]; x1 = 0.1957,840.5 ± 0.7 kg/m3
same,viscosity,[2]; x1 = 0.1957,0.397 ± 0.008 mPa·s
same,mass density,[2]; x1 = 0.2944,863.1 ± 0.7 kg/m3
same,viscosity,[2]; x1 = 0.2944,0.411 ± 0.008 mPa·s
same,mass density,[2]; x1 = 0.3935,886.8 ± 0.7 kg/m3
same,viscosity,[2]; x1 = 0.3935,0.426 ± 0.008 mPa·s
same,mass density,[2]; x1 = 0.4933,911.8 ± 0.7 kg/m3
same,viscosity,[2]; x1 = 0.4933,0.441 ± 0.009 mPa·s
same,mass density,[2]; x1 = 0.5935,938.1 ± 0.8 kg/m3
same,viscosity,[2]; x1 = 0.5935,0.456 ± 0.009 mPa·s
same,mass density,[2]; x1 = 0.6943,965.5 ± 0.8 kg/m3
same,viscosity,[2]; x1 = 0.6943,0.473 ± 0.009 mPa·s
same,mass density,[2]; x1 = 0.7956,994.2 ± 0.8 kg/m3
same,viscosity,[2]; x1 = 0.7956,0.491 ± 0.009 mPa·s
same,mass density,[2]; x1 = 0.8975,1024.5 ± 0.8 kg/m3
same,viscosity,[2]; x1 = 0.8975,0.51 ± 0.01 mPa·s
same,mass density,[2]; x1 = 1,1057.1 ± 0.9 kg/m3
same,viscosity,[2]; x1 = 1,0.531 ± 0.01 mPa·s
"C1COCCO1 [1,4-dioxane] + CCCC(=O)O",mass density,[2]; x1 = 1,1026.5 ± 0.8 kg/m3
same,viscosity,[2]; x1 = 1,1.196 ± 0.02 mPa·s
CCC(C)=O [butanone] + C1COCCO1,mass density,[2]; x2 = 0,798.1 ± 0.6 kg/m3
same,viscosity,[2]; x2 = 0,0.373 ± 0.007 mPa·s
same,mass density,[2]; x2 = 0.0833,817 ± 0.6 kg/m3
same,viscosity,[2]; x2 = 0.0833,0.391 ± 0.008 mPa·s
same,mass density,[2]; x2 = 0.1698,836.5 ± 0.7 kg/m3
same,viscosity,[2]; x2 = 0.1698,0.411 ± 0.008 mPa·s
same,mass density,[2]; x2 = 0.2597,856.8 ± 0.7 kg/m3
same,viscosity,[2]; x2 = 0.2597,0.436 ± 0.008 mPa·s
same,mass density,[2]; x2 = 0.353,877.9 ± 0.7 kg/m3
same,viscosity,[2]; x2 = 0.353,0.464 ± 0.009 mPa·s
same,mass density,[2]; x2 = 0.4501,900.1 ± 0.7 kg/m3
same,viscosity,[2]; x2 = 0.4501,0.512 ± 0.01 mPa·s
same,mass density,[2]; x2 = 0.5511,923.3 ± 0.7 kg/m3
same,viscosity,[2]; x2 = 0.5511,0.576 ± 0.011 mPa·s
same,mass density,[2]; x2 = 0.6563,947.2 ± 0.8 kg/m3
same,viscosity,[2]; x2 = 0.6563,0.65 ± 0.012 mPa·s
same,mass density,[2]; x2 = 0.766,972.2 ± 0.8 kg/m3
same,viscosity,[2]; x2 = 0.766,0.751 ± 0.013 mPa·s
same,mass density,[2]; x2 = 0.8805,998.5 ± 0.8 kg/m3
same,viscosity,[2]; x2 = 0.8805,0.901 ± 0.015 mPa·s

# Reference: the NIST ThermoML archive (doi:10.1021/je0504109)
